How the values were obtained:
VP16 = molecular target: T1, VP16 (Human herpesvirus 1, UniProt P06492); test: S2 cell VP16 luciferase reporter; format: cell-based, herpes simplex virus; details: 10 μM, FIG. 1c
T1 construct: herpes simplex virus VP16 (amino acids 413 to end); expressed in transfected cells
Text: (§1) The Drosophila S2 cell line was originally purchased from Invitrogen and was maintained in Schneider's medium supplemented with 10% heat-inactivated bovine fetal calf serum and antibiotics (Invitrogen). Gal4 DNA binding domain (G4 DBD) corresponding to amino acids 1 through 147 of Gal4 protein was PCR amplified to make a fusion construct with mouse RORγt (amino acids 79 to the carboxyl terminal end) lacking its DNA binding domain. The resulting chimeric gene was subcloned into the copper inducible pMT/V5-His A vector (Invitrogen). In a similar manner, Gal4 fusion constructs were prepared with mouse RORα (amino acids 142 to end) or Drosophila DHR3 (amino acids 120 to end). Coding sequences for firefly luciferase (Promega) were PCR amplified and subcloned into pUAST vector containing Gal4 binding enhancer sequences. Renilla luciferase construct under the polIII promoter was obtained from Dr. Dasgupta's laboratory (NYU medical center). In order to generate stable cell lines, cells were co-transfected with pMT-G4 DBD-RORγt, pMT-G4 DBD-RORα, pMT-G4 DBD-DHR3, or pMT-G4 DBDVP16 and pHygro plasmids (Invitrogen) and screened for resistant colonies in the presence of hygromycin (0.3 mg/mL). […]

[1] = tested on: gut (large intestine) Th17 cells; test: DSS-induced model relating to intestinal bowel diseases; format: in vivo, mouse; design: dose or concentration left out as unconfirmed; details: IP daily, day 7
Protocol: Th17 cells were induced by Dextran Sulfate Sodium (DSS) treatment, a chemical agent that causes intestinal epithelial injury, and thus, is often used to generate an animal model that mimics many aspects of intestinal bowel diseases. […] Gut associated mononuclear cells were collected and their cytokine expression was analyzed on day 7. Representative FACS plots (gated on CD4^+CD3^+TCRβ^+CD19^− cells) from each group are shown (left).
B6 wild-type mice received 2% DSS (Dextran Sulfate Sodium) ad libitum in drinking water for 7 days. […] Gut associated cells were collected and activated for cytokine straining on day 7. To isolate cells from the small intestinal lamina propria, Peyer's patches, fat and mesenterium were removed before opening the intestine longitudinally. The tissue was cut into 2 cm pieces and washed in calcium- and magnesium-free PBS (Gibco). The tissue was then washed for 10 minutes in cold 1 mM DTT (Sigma) in PBS then two 10 minute washes in 30 mM EDTA, 10 mM HEPES (Gibco) in PBS at 37° C. The tissue was washed with complete RPMI and digested for 1.5 hr at 37° C. in 5% CO2, humidified atmosphere, in complete RPMI containing 100 U ml-1 type VIII collagenase (Sigma) and 150 μg ml—1 DNaseI (Sigma). After digestion, cells were eluted from the tissue by shaking. Live cells were isolated using a Percoll (Pharmacia) gradient. […]

[2] = tested on: Th17 cell transfer-mediated EAE; test: Th17 cell transfer-mediated (passive) EAE; format: in vivo, mouse; details: daily from day 2, RAG-2-deficient mice
RORα = molecular target: T2, RORα (Mus musculus, UniProt P51448); test: S2 cell RORα luciferase reporter; format: cell-based; details: 10 μM, FIG. 1c
T2 construct: mouse RORα (amino acids 142 to end); expressed in transfected cells
T2 sequence (P51448 142-523 limits assumed): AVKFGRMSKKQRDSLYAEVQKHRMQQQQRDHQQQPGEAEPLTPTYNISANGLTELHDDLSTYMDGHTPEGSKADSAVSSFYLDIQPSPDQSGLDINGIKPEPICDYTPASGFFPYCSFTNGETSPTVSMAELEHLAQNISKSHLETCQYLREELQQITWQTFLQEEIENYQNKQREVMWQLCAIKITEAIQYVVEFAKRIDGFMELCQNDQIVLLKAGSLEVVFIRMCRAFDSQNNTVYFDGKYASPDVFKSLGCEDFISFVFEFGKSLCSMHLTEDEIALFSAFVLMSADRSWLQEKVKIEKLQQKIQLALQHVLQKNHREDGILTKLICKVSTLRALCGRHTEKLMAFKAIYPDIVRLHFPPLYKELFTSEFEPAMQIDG
Text: as §1

[3] = tested on: human embryonic kidney 293t cell lines; test: Toxicity on human embryonic kidney 293T cells; details: human
Protocol: The following representative compounds are tested for their RORγt inhibitory activity and toxicity.

T1 sequence (P06492 413-490): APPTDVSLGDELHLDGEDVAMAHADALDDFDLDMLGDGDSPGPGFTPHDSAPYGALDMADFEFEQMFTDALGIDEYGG

| Compound | effect on transcriptional activity of VP16 (VP16) | number of gut (large intestine) Th17 cells [1] | onset and severity of Th17 cell transfer-mediated EAE [2] | effect on transcriptional activity of RORα (RORα) | cytotoxic concentration on human cells [3] [µM] |
| --- | --- | --- | --- | --- | --- |
| C[C@H]1O[C@@H](O[C@H]2[C@@H](O)C[C@H](O[C@H]3[C@@H](O)C[C@H](O[C@H]4CC[C@@]5(C)[C@H](CC[C@@H]6[C@@H]5C[C@@H](O)[C@]5(C)[C@@H](C7=CC(=O)OC7)CC[C@]65O)C4)O[C@@H]3C)O[C@@H]2C)C[C@H](O)[C@@H]1O [Digoxin] | no effect | reduction | delayed onset and reduced severity | no effect |  |
| CC1O[C@@H](OC2C(C)O[C@H](OC3C(C)O[C@@H](O[C@H]4CC[C@@]5(C)[C@H](CC[C@@H]6[C@@H]5C[C@@H](O)[C@]5(C)[C@@H](C(CO)CCO)CC[C@]65O)C4)C[C@H]3O)C[C@H]2O)C[C@@H](O)C1O (some centres unmarked) [Compound 13, 20,22-Dihydrodigoxin-21,23-diol] |  |  |  |  | > 40 |

From patent publication US9505798B2, “Steroid compounds as RORyt modulators and uses thereof” (New York University, priority 2010, dated 2016)
